Results taken from US7723562B2, “Mice lacking alpha 1G showing enhanced novelty-seeking and alcohol preference and therapeutic methods for mood disorders by modulating alpha 1G T-type calcium channels” (Korea Institute of Science and Technology, priority 2004, dated 2010).
Entries after “also recorded” stand apart in the source; their conditions may differ.

System: α1G−/− transgenic mice
Experiment: Mobility in an open field after drug treatment (pharmacological analysis)
Type: in vivo, mouse
Settings: 0.5 mg/kg injected into abdominal cavity, FIG. 8
Text: For reactivity test in an open field, a test animal was transferred to a test room one hour before the test began and each animal was put in an independent breeding cage for adaptation.
In order to investigate whether or not mobility increase of α1G−/− transgenic mice is related to diseases such as attention-deficit hyperactive disorder, schizophrenia, stereotype, etc., the present inventors have performed analysis of pharmacological effect of lithium and amphetamine which have been used as a therapeutic agent for the above diseases.
First, the effect of lithium and amphetamine on reactivity to a new subject was investigated. Particularly, one hour before exposing a test animal on an experimental device, lithium or amphetamine (0.5 mg/kg, injection 10 ml/kg) was injected into abdominal cavity of the animal. The test procedure was in accordance with that of reactivity test in an open field, but a breeding cage (24×18×13 cm) took the place of a white acryl open field in this example and a subject used was a styrofoam covered with 0.5 g aluminum foil and the size of which was 1.5×1.5×1.5 cm. Behavior of the animal was all recorded by a video camera for further analysis. Same standard and behavior index were used.

## CC(N)Cc1ccccc1 (centres unmarked) [amphetamine]
  early mobility increase of α1G−/− transgenic mice: not mitigated; also recorded: did not decrease
  non environment dependent mobility increase: over-induced; also recorded: increased excessively
